Results published in the NIST ThermoML archive (doi:10.1021/je800579j).
Numbers after ± are expanded uncertainties.

How the values were obtained:
[1] = xn = mol fraction of the nth substance listed; conditions: Liquid, Pycnometric method
[2] = refractive index (Na D-line) (dimensionless); xn = mol fraction of the nth substance listed; conditions: Liquid, Standard Abbe refractometry
[3] = refractive index (Na D-line) (dimensionless); conditions: Liquid, Standard Abbe refractometry
[4] = Liquid, Pycnometric method

Row | SMILES | mass density ([1]; 288.15 K, x1 = 1) [kg/m3] | mass density ([1]; 293.15 K, x1 = 1) [kg/m3] | mass density ([1]; 298.15 K, x1 = 1) [kg/m3] | mass density ([1]; 303.15 K, x1 = 1) [kg/m3] | mass density ([1]; 308.15 K, x1 = 1) [kg/m3] | mass density ([1]; 313.15 K, x1 = 1) [kg/m3] | mass density ([1]; 318.15 K, x1 = 1) [kg/m3] | refractive index ([2]; 288.15 K, x1 = 1) | refractive index ([2]; 293.15 K, x1 = 1) | refractive index ([2]; 298.15 K, x1 = 1) | refractive index ([2]; 303.15 K, x1 = 1) | refractive index ([2]; 308.15 K, x1 = 1) | refractive index ([2]; 313.15 K, x1 = 1) | refractive index ([2]; 318.15 K, x1 = 1) | also measured
1 | Cc1ccccc1 [toluene] + C1COCCO1 |  |  |  |  |  |  |  |  |  |  |  |  |  |  | mass density ([1]; 288.15 K, x2 = 0): 871.79 ± 0.72 kg/m3; mass density ([1]; 293.15 K, x2 = 0): 867.08 ± 0.71 kg/m3; mass density ([1]; 298.15 K, x2 = 0): 862.36 ± 0.72 kg/m3; mass density ([1]; 303.15 K, x2 = 0): 857.64 ± 0.72 kg/m3; mass density ([1]; 308.15 K, x2 = 0): 852.93 ± 0.73 kg/m3; mass density ([1]; 313.15 K, x2 = 0): 848.21 ± 0.73 kg/m3; mass density ([1]; 318.15 K, x2 = 0): 843.49 ± 0.74 kg/m3; refractive index ([2]; 288.15 K, x2 = 0): 1.4998 ± 0.0007; refractive index ([2]; 293.15 K, x2 = 0): 1.497 ± 0.0007; refractive index ([2]; 298.15 K, x2 = 0): 1.4942 ± 0.0007; refractive index ([2]; 303.15 K, x2 = 0): 1.4913 ± 0.0007; refractive index ([2]; 308.15 K, x2 = 0): 1.4884 ± 0.0007; refractive index ([2]; 313.15 K, x2 = 0): 1.4855 ± 0.0007; refractive index ([2]; 318.15 K, x2 = 0): 1.4826 ± 0.0007
2 | C1COCCO1 [1,4-dioxane] + Cc1cccc(C)c1 | 1039.23 ± 0.87 | 1033.59 ± 0.87 | 1027.95 ± 0.87 | 1022.32 ± 0.88 | 1016.68 ± 0.88 | 1011.05 ± 0.89 | 1005.42 ± 0.89 | 1.4245 ± 0.0006 | 1.4224 ± 0.0006 | 1.4203 ± 0.0006 | 1.4182 ± 0.0006 | 1.4161 ± 0.0006 | 1.4139 ± 0.0006 | 1.4117 ± 0.0006 | 
3 | C1COCCO1 [1,4-dioxane] + Cc1ccccc1C | 1039.23 ± 0.87 | 1033.59 ± 0.87 | 1027.95 ± 0.87 | 1022.32 ± 0.88 | 1016.68 ± 0.88 | 1011.05 ± 0.89 | 1005.42 ± 0.89 | 1.4245 ± 0.0006 | 1.4224 ± 0.0006 | 1.4203 ± 0.0006 | 1.4182 ± 0.0006 | 1.4161 ± 0.0006 | 1.4139 ± 0.0006 | 1.4117 ± 0.0006 | 
4 | Cc1cccc(C)c1 [1,3-dimethylbenzene] |  |  |  |  |  |  |  |  |  |  |  |  |  |  | refractive index ([3]; 288.15 K): 1.4999 ± 0.0006; refractive index ([3]; 293.15 K): 1.4974 ± 0.0007; refractive index ([3]; 298.15 K): 1.4948 ± 0.0007; refractive index ([3]; 303.15 K): 1.4922 ± 0.0007; refractive index ([3]; 308.15 K): 1.4896 ± 0.0007; refractive index ([3]; 313.15 K): 1.487 ± 0.0007; refractive index ([3]; 318.15 K): 1.4844 ± 0.0007; mass density ([4]; 288.15 K): 868.59 ± 0.67 kg/m3; mass density ([4]; 293.15 K): 864.31 ± 0.66 kg/m3; mass density ([4]; 298.15 K): 860.02 ± 0.67 kg/m3; mass density ([4]; 303.15 K): 855.74 ± 0.67 kg/m3; mass density ([4]; 308.15 K): 851.45 ± 0.68 kg/m3; mass density ([4]; 313.15 K): 847.17 ± 0.68 kg/m3; mass density ([4]; 318.15 K): 842.88 ± 0.69 kg/m3
